Experimental data reported in PubChem BioAssay (NCI).
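Values below derive from 48-hour exposures of cells grown in 96-well plates, with endpoints linearly interpolated between the two concentrations bracketing the appropriate inhibition level. GI50 marks 50% less growth. TGI is the concentration that stops growth completely.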

How the values were obtained:
Assay in all cases: NCI-60 cell line screen, 48 h
ACHN renal = system: ACHN renal
CCRF-CEM leukemia = system: CCRF-CEM leukemia
COLO 205 colon = system: COLO 205 colon
HL-60(TB) leukemia = system: HL-60(TB) leukemia
HOP-62 NSCLC = system: HOP-62 NSCLC
LOX IMVI melanoma = system: LOX IMVI melanoma
NCI-H460 lung = system: NCI-H460 lung
OVCAR-5 ovarian = system: OVCAR-5 ovarian
SF-295 CNS = system: SF-295 CNS
TK-10 renal = system: TK-10 renal

| Structure (SMILES) | GI50 (ACHN renal) [µM] | TGI (ACHN renal) [µM] | GI50 (CCRF-CEM leukemia) [µM] | TGI (CCRF-CEM leukemia) [µM] | GI50 (COLO 205 colon) [µM] | TGI (COLO 205 colon) [µM] | GI50 (HL-60(TB) leukemia) [µM] | TGI (HL-60(TB) leukemia) [µM] | GI50 (HOP-62 NSCLC) [µM] | TGI (HOP-62 NSCLC) [µM] | GI50 (LOX IMVI melanoma) [µM] | TGI (LOX IMVI melanoma) [µM] | GI50 (NCI-H460 lung) [µM] | TGI (NCI-H460 lung) [µM] | GI50 (OVCAR-5 ovarian) [µM] | TGI (OVCAR-5 ovarian) [µM] | GI50 (SF-295 CNS) [µM] | TGI (SF-295 CNS) [µM] | GI50 (TK-10 renal) [µM] | TGI (TK-10 renal) [µM] |
| --- | --- | --- | --- | --- | --- | --- | --- | --- | --- | --- | --- | --- | --- | --- | --- | --- | --- | --- | --- | --- |
| C/C(=N\NC(=O)c1sc(=S)n(C)c1N)c1cc2ccccc2o1 | 13.4 | 38.4 | 10.6 | 31 | 17.1 | 50.6 | 26 | > 100 | 13.3 | 27.2 | 7.05 | 20.1 | 5.89 | 24.1 | 16.4 | 48.2 | 14.4 | 30 | 15.3 | 32.7 |
| Cc1cn(Cc2ccccc2CCO)c(=S)[nH]c1=O |  | > 100 |  | > 100 |  | > 100 |  | > 100 |  | > 100 |  | > 100 |  | > 100 |  | > 100 |  | > 100 |  | > 100 |
